Where two headings read alike, the source gives them in different places. Positions of bridges follow the written chain, without caps; N, C: chain ends. Non-standard residues stand in square brackets, D forms with d. Residues, ends and D or L forms follow the SMILES beside them. *: point of attachment. Acetyl(2-naphthyl) = O=C(Cc1ccc2ccccc2c1)*; dPhe(4-Cl) = N[C@H](Cc1ccc(Cl)cc1)C(=O)O; 1Nal = N[C@@H](Cc1cccc2ccccc12)C(=O)O; 2Nal = N[C@@H](Cc1ccc2ccccc2c1)C(=O)O; d2Nal = N[C@H](Cc1ccc2ccccc2c1)C(=O)O; Ac6c = NC1(C(=O)O)CCCCC1; Heptanoyl = CCCCCCC(=O)*; Nle = CCCC[C@H](N)C(=O)O; Bn = c1ccc(C*)cc1
Key:
MC3-R = MC3-R (Homo sapiens, UniProt P41968); test: Competitive inhibition assay using [I^125]-NDP-α-MSH, hMC3-R membranes; assay type: binding; design: expressed in transfected cells; settings: read-out: Inhibition at 1 μM (NDP-α-MSH) In Normal System, MC3-R
Description: (§1) The ligand concentration used was 0.4 nM for MC3-R and MC5-R, 0.2 nM for MC4-R and 0.1 nM for B16-F10 (MC1-R) membranes. In certain experiments, hMC1-R was also employed.
(§2) The assay mixture was incubated for 90 minutes at room temperature, then filtered and the membranes washed three times with ice cold buffer. The filter was dried and counted in a gamma counter for remaining radioactivity bound to the membranes. […] Each assay was conducted in triplicate and the actual mean values are described, with results less than 0% reported as 0%.

MC4-R [1] = target: T1, MC4-R (Homo sapiens, UniProt P32245); test: cAMP agonist stimulation, high receptor density system (10 ng/mL doxycycline); settings: for Efficacy/Intrinsic Activity: 10 ng/mL doxycycline, high receptor density hMC4-R system, NDP-α-MSH maximal cAMP = 1.0
MC1-R = target: T2, MC1-R (Mus musculus, UniProt Q01727); test: Competitive inhibition assay using [I^125]-NDP-α-MSH, B-16 mouse melanoma cell membranes; assay type: binding; settings: read-out: Inhibition at 1 μM (NDP-α-MSH) In Normal System, MC1-R
T2 construct: B-16 mouse melanoma cells (containing MC1-R); endogenous in cells
Description: as §1, §2

MC4-R [2] = target: T1, MC4-R; test: Competitive inhibition assay using [I^125]-NDP-α-MSH, hMC4-R membranes; assay type: binding; design: host or cells: TREx-293 (HEK-293 stably expressing Tet repressor); settings: for inhibition at 1 µM: read-out: Inhibition at 1 μM (NDP-α-MSH) In Normal System, MC4-R; for Ki: read-out: Ki (nM) (NDP-α-MSH) In Normal System, MC4-R
Description: as §1, §2

MC5-R = MC5-R (Homo sapiens, UniProt P33032); test: Competitive inhibition assay using [I^125]-NDP-α-MSH, hMC5-R membranes; assay type: binding; design: expressed in transfected cells; settings: for inhibition at 1 µM: read-out: Inhibition at 1 μM (NDP-α-MSH) In Normal System, MC5-R
Description: as §1, §2

MC4-R [3] = target: T1, MC4-R; test: cAMP functional activity assay in HEK-293 cells, normal system; assay type: cell-based; design: expressed in transfected cells; host or cells: HEK-293; settings: for intrinsic activity at MC4-R in a normal system: NDP-α-MSH = 1.0
Description: General method for EC50 determination in functional activity assay. […] Data analysis and EC50 values were determined using nonlinear regression analysis with Prism Graph-Pad software.
Functional status. The agonist/antagonist status with respect to MC1-R, MC-3R, MC4-R and MC5-R of certain compounds of the invention was determined. Antagonistic activity was determined by measuring the inhibition of α-MSH-induced or NDP-α-MSH-induced cAMP levels following exposure to graded doses of compounds as in the preceding descriptions.
Assay for agonist. Evaluation of the molecules to elicit a functional response in HEK-293 cells expressing MC4-R was accomplished by measuring the accumulation of intracellular cAMP following treatment. Confluent HEK-293 cells expressing MC4-R receptors were detached by enzyme free cell suspension buffer. […] The cells were plated in a 96 well plates at a density of 0.5×10^5 cells per well and pre-incubated for 30 minutes. Test compounds (dissolved in dimethylsulfoxide (DMSO) at a concentration range of 0.05-5000 nM) were added in a total assay volume of 200 μL and cells were incubated for 1 hour at 37° C. The concentration of DMSO was always held at 1% in the assay mixture. NDP-α-MSH was used as the reference agonist. […] Data analysis and EC50 values were determined by using nonlinear regression analysis with Prism Graph-Pad software. […] Compounds with a response ratio of less than 0.1 (10%) were evaluated for antagonistic activity.

MC4-R [4] = target: T1, MC4-R; test: cAMP agonist stimulation, low receptor density system (0.1 ng/mL doxycycline); settings: for Efficacy/Intrinsic Activity: 0.1 ng/mL doxycycline, low receptor density hMC4-R system, NDP-α-MSH maximal cAMP = 1.0
[5] = ICV food intake and body weight change; assay type: in vivo; settings: rat, 1 nmol, 24 hours
Description: ICV food intake and body weight change. Change in food intake and body weight was evaluated for selected compounds. Rats with indwelling intracerebroventricular cannulas (ICV rats) were obtained from Hilltop Lab Animals, Inc. (Scottdale, Pa.). Animals were individually housed in conventional plexiglass hanging cages and maintained on a controlled 12 hour on/off light cycle. Water and powdered (LabDiet, 5P00 Prolab RMH 3000) or pelleted (Harlan Teklad 2018 18% Protein Rodent Diet) food was provided ad libitum. For 1 week before treatment, 24-hour food intake and body weight change was recorded to assess a baseline for the group during vehicle treatment. The rats were dosed ICV with vehicle or selected compounds (1-3 nmol). The changes in body weight and food intake for the 24 hour period after dosing were determined. The changes in body weight and food intake for the 48 hour and 72 hour periods after dosing were also measured to determine reversal of changes in body weight and food intake effects back to baseline levels.

[6] = Penile erection induction in male rats; assay type: in vivo; settings: rat
Description: Penile erection induction. The ability of compounds to induce penile erection (PE) in male rats was evaluated with selected compounds. Male Sprague-Dawley rats weighing 200-250 g were kept on a 12 hour on/off light cycle with food and water ad libitum. All behavioral studies were performed between 10 A.M. and 5 P.M. Groups of 4-8 rats were treated with compounds at a variety of doses via intravenous (IV) or intracerebroventricular (ICV) routes. Immediately after treatment, rats were placed into individual polystyrene cages (27 cm long, 16 cm wide, and 25 cm high) for behavioral observation. […] Controls utilized carrier without the test compound. Mean PEs in control groups were 0.17 to 0.5 PEs/rat by IV administration in various experiments and between 1-2 PEs/rat by ICV administration in various experiments, and thus only PEs with statistically relevant increases over the mean PEs in control groups are reported as inducing PEs. A PE response in IV animals greater than the mean PEs in control groups but less than 1.0 PEs/rat, particularly with less than all animals responding, was treated as equivocal, and not necessarily distinguishable from vehicle control. In selected instances, compounds with equivocal results in the IV model were tested for penile response in an ICV model, and compounds without a statistically relevant increase over the mean PEs in ICV control groups were determined to not induce PEs.

[7] = normal system, 1 μM concentration where stated

T1 sequence (P32245 whole entry): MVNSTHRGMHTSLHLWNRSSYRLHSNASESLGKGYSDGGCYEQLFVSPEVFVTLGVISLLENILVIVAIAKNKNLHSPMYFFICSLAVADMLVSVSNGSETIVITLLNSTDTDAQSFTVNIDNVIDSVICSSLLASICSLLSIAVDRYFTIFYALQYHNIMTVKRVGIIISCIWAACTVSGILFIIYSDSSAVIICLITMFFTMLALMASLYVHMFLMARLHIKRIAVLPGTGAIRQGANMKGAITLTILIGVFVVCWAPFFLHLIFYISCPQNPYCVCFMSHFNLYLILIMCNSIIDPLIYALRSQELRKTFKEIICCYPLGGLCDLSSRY
Chain of MC3-R (P41968 whole entry): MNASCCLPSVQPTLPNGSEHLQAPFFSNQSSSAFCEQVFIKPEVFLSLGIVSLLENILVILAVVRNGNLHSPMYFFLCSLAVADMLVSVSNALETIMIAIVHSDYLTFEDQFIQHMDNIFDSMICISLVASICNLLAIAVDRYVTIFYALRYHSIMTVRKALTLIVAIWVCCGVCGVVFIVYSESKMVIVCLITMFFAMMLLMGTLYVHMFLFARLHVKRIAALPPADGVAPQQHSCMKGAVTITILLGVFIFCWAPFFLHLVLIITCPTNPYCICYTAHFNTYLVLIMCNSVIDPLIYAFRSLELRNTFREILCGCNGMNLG
Chain of MC5-R (P33032 whole entry): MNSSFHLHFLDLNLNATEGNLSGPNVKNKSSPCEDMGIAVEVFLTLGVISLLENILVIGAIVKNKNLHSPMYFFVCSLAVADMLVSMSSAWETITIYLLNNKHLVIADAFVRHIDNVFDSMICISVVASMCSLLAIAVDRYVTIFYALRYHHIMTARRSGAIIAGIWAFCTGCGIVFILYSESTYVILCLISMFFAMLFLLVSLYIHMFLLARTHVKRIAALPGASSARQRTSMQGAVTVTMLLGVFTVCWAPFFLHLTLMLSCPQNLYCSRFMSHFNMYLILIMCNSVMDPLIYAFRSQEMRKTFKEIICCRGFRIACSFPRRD
T2 sequence (Q01727 whole entry): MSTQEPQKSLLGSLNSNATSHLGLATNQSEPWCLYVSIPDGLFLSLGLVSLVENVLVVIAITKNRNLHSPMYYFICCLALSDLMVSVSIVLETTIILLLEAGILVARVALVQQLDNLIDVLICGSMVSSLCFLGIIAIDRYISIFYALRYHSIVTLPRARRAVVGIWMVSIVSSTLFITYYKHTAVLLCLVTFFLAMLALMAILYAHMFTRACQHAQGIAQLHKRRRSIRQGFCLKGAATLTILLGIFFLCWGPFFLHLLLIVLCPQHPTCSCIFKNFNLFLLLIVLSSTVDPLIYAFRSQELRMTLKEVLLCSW

Compound | inhibition at 1 µM (MC3-R; 1 μM test compound) [%] | EC50 (MC4-R [1]) [nM] | inhibition at 1 µM (MC1-R; 1 μM test compound) [%] | inhibition at 1 µM (MC4-R [2]; 1 μM test compound) [%] | Ki (MC4-R [2]) [nM] | inhibition at 1 µM (MC5-R; 1 μM test compound) [%] | EC50 (MC4-R [4]) [nM] | further results
CCCC[C@H](NC(C)=O)C(=O)N[C@H]1CC(=O)NCCCC[C@@H](C(=O)NCC)NC(=O)[C@H](Cc2cccc3ccccc23)NC(=O)[C@H](CCCNC(=N)N)NC(=O)[C@@H](Cc2ccccc2)NC(=O)[C@H](Cc2c[nH]c3ccccc23)NC1=O [Example 38, Ac-Nle-cyclo(-Asp-Trp-D-Phe-Arg-Nal 1-Lys)-NH—CH2—CH3] (Ac-[Nle]DW[dF]R[1Nal]K-NHEt; lactam 2-7) | 92 | 10 | 98 | 100 | 9 | 92 |  | 
N=C(N)NCCC[C@H](NC(=O)[C@@H](Cc1ccc(Cl)cc1)NC(=O)C1(NC(=O)Cc2ccc3ccccc3c2)CCCCC1)C(=O)N[C@@H](Cc1c[nH]c2ccccc12)C(N)=O [Example 24, 2-naphthylacetyl-1-amino-1-cyclohexane-carbonyl-D-Phe(4-Cl)-Arg-Trp-NH2] ({Acetyl(2-naphthyl)}-[Ac6c][dPhe(4-Cl)]RW-NH2) |  |  |  |  |  |  |  | Efficacy/Intrinsic Activity (MC4-R [1]): None; intrinsic activity at MC4-R in a normal system (MC4-R [3]; normal receptor density system): 0.2; functional status at MC4-R in cAMP assay (MC4-R [3]; [7]): partial agonist (intrinsic activity between 0.1 (10%) and 0.7 (70%) is classified as a partial agonist); Efficacy/Intrinsic Activity (MC4-R [4]): None; decrease in body weight [5]: 1%; decrease in food intake [5]: 21%
CCCC[C@H](NC(C)=O)C(=O)N[C@H]1CC(=O)NCCCC[C@@H](C(=O)N(C)C)NC(=O)[C@H](Cc2cccc3ccccc23)NC(=O)[C@H](CCCNC(=N)N)NC(=O)[C@@H](Cc2ccccc2)NC(=O)[C@H](Cc2c[nH]c3ccccc23)NC1=O [Example 36, Ac-Nle-cyclo(-Asp-Trp-D-Phe-Arg-Nal 1-Lys)-N(CH3)2] (Ac-[Nle]DW[dF]R[1Nal]K-NMe2; lactam 2-7) | 83 | 4 | 71 | 99 | 38 | 92 |  | 
CCCC[C@H](NC(C)=O)C(=O)N[C@H]1CC(=O)NCCCC[C@@H](C(=O)O)NC(=O)[C@H](Cc2c[nH]c3ccccc23)NC(=O)[C@H](CCCNC(=N)N)NC(=O)[C@@H](Cc2ccccc2)NC(=O)[C@H](Cc2c[nH]cn2)NC1=O [PT-141, cyclo 2,7[Ac-Nle-Asp-His-D-Phe-Arg-Trp-Lys]-OH, reference compound] |  |  |  |  |  |  |  | Penile Erection ICV ([6]; ICV): Yes**; Penile Erection IV ([6]; IV): Yes**
CCCC[C@H](NC(C)=O)C(=O)N[C@H]1CC(=O)NCCCC[C@@H](C(=O)N(C)C)NC(=O)[C@H](Cc2cccc3ccccc23)NC(=O)[C@H](CCCNC(=N)N)NC(=O)[C@@H](Cc2ccccc2)NC(=O)[C@H](Cc2c[nH]cn2)NC1=O [Example 37, Ac-Nle-cyclo(-Asp-His-D-Phe-Arg-Nal 1-Lys)-N(CH3)2] | 92 | 0.6 | 82 | 100 | 5 | 92 | 2.1 | 
CCCCCCC(=O)N[C@H](C(=O)N[C@H](Cc1ccc(Cl)cc1)C(=O)N[C@@H](CCCNC(=N)N)C(=O)N[C@@H](Cc1c[nH]c2ccccc12)C(N)=O)[C@@H](C)OCc1ccccc1 [Example 23, Heptanoyl-Thr(Bzl)-D-Phe(4-Cl)-Arg-Trp-NH2] (Heptanoyl-T(Bn)[dPhe(4-Cl)]RW-NH2) |  | 184 |  |  |  |  |  | Efficacy/Intrinsic Activity (MC4-R [1]): 0.75; intrinsic activity at MC4-R in a normal system (MC4-R [3]; normal receptor density system): 0.4; functional status at MC4-R in cAMP assay (MC4-R [3]; [7]): partial agonist (intrinsic activity between 0.1 (10%) and 0.7 (70%) is classified as a partial agonist); Efficacy/Intrinsic Activity (MC4-R [4]): None; Penile Erection IV ([6]; IV): No; penile erection response ([6]; IV, 1 μg/kg): no penile erection response; decrease in body weight [5]: 1%; decrease in food intake [5]: 18%
CCNC(=O)[C@@H]1CCCCNC(=O)C[C@H](NC(C)=O)C(=O)N[C@@H](Cc2c[nH]cn2)C(=O)N[C@H](Cc2ccccc2)C(=O)N[C@@H](CCCNC(=N)N)C(=O)N[C@@H](Cc2c[nH]c3ccccc23)C(=O)N1 [Example 40, Ac-cyclo(-Asp-His-D-Phe-Arg-Trp-Lys)-NH—CH2—CH3] | 65 | 0.5 | 96 | 96 | 6 | 16 | 3.1 | EC50 (MC4-R [3]; normal receptor density system): 3 nM; Ki (MC5-R; read-out: Ki (nM) (NDP-α-MSH) In Normal System, MC5-R): > 1000 nM
CCCC[C@H](NC(C)=O)C(=O)N[C@H]1CC(=O)NCCCC[C@@H](C(=O)NCC)NC(=O)[C@H](Cc2cccc3ccccc23)NC(=O)[C@H](CCCNC(=N)N)NC(=O)[C@@H](Cc2ccccc2)NC(=O)[C@H](Cc2c[nH]cn2)NC1=O [Example 39, Ac-Nle-cyclo(-Asp-His-D-Phe-Arg-Nal 1-Lys)-NH—CH2—CH3] | 93 | 1.1 | 100 | 98 | 2 | 93 | 10 | 
C[C@H](NC(=O)[C@H](CCCNC(=N)N)NC(=O)[C@@H](Cc1ccc(Cl)cc1)NC(=O)[C@H](COCc1ccccc1)NC(=O)CCCCCCN)c1cccc2ccccc12 [Example 16, 7′-amino-heptanoyl-Ser(Bzl)-D-Phe(4-Cl)-Arg-S-(−)-1-(1-naphthyl)ethylamide] |  | 180 |  |  |  |  |  | 
CNC(=O)[C@@H]1CCCCNC(=O)C[C@H](NC(C)=O)C(=O)N[C@@H](Cc2c[nH]c3ccccc23)C(=O)N[C@H](Cc2ccc3ccccc3c2)C(=O)N[C@@H](CCCNC(=N)N)C(=O)N[C@@H](Cc2ccc3ccccc3c2)C(=O)N1 [Example 35, Ac-cyclo(Asp-Trp-D-Nal 2-Arg-Nal 2-Lys)-NH—CH3] (Ac-DW[d2Nal]R[2Nal]K-NHMe; lactam 1-6) |  |  |  |  |  |  |  | inhibition at 1 µM (MC3-R): 99%; functional status at MC4-R in cAMP assay (MC4-R [3]; at 1 nM dose): inactive; inhibition at 1 µM (MC1-R): 67%; inhibition at 1 µM (MC4-R [2]): 100%; inhibition at 1 µM (MC5-R): 98%
